What was measured:
human TLR7 = target: T1, human TLR7 (Homo sapiens, UniProt Q9NYK1); assay: TLR7 inhibition reporter assay (HEK-Blue cells, SEAP reporter, gardiquimod stimulation); format: cell-based; details: HEK-Blue cells overexpressing human TLR7, gardiquimod 7.5 μM
T1 construct: host or cells: HEK-Blue cells
T1 sequence (Q9NYK1 27-1049): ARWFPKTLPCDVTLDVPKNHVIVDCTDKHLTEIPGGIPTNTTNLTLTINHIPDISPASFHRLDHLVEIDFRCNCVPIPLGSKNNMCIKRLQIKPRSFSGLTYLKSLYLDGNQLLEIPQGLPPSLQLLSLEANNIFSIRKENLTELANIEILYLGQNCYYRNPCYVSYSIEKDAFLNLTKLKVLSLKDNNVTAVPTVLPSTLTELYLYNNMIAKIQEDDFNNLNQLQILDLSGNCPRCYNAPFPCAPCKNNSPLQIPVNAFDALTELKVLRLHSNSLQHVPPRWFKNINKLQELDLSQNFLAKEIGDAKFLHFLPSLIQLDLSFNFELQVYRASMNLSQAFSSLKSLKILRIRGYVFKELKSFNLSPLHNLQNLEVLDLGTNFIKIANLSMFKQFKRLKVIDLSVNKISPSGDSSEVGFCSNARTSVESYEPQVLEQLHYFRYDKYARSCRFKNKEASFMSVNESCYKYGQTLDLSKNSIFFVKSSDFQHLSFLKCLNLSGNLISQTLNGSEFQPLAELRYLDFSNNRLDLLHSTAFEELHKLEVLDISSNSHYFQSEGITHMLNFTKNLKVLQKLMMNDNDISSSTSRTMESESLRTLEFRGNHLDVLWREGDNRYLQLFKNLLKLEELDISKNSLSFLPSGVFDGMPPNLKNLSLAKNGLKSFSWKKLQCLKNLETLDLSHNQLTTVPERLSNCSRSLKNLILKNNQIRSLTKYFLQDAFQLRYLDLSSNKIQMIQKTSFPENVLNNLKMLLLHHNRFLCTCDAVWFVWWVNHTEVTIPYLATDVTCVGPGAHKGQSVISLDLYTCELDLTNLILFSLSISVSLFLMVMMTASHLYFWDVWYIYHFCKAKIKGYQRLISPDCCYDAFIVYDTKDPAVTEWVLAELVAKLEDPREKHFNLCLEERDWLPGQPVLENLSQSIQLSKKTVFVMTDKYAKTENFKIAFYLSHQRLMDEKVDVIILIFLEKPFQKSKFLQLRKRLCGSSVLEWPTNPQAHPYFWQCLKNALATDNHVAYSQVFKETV
How it was run: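 SEAP readout via HEK-Blue Detection medium after 22 h at 37 °C, 5% CO2 defines inhibition, normalized between agonist-plus-DMSO wells and a reference inhibitor. Compound dose range 0.05 nM–50 μM; TLR7 cells at 15,000/well (gardiquimod), TLR8 at 20,000/well (R848).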

human TLR9 = target: T2, human TLR9 (Homo sapiens, UniProt Q9NR96); assay: TLR9 inhibition reporter assay (HEK-Blue cells, SEAP reporter, ODN2006 stimulation); format: cell-based; details: HEK-Blue cells overexpressing human TLR9, ODN2006 5 nM
T2 construct: host or cells: HEK-Blue cells
T2 sequence (Q9NR96 26-1032): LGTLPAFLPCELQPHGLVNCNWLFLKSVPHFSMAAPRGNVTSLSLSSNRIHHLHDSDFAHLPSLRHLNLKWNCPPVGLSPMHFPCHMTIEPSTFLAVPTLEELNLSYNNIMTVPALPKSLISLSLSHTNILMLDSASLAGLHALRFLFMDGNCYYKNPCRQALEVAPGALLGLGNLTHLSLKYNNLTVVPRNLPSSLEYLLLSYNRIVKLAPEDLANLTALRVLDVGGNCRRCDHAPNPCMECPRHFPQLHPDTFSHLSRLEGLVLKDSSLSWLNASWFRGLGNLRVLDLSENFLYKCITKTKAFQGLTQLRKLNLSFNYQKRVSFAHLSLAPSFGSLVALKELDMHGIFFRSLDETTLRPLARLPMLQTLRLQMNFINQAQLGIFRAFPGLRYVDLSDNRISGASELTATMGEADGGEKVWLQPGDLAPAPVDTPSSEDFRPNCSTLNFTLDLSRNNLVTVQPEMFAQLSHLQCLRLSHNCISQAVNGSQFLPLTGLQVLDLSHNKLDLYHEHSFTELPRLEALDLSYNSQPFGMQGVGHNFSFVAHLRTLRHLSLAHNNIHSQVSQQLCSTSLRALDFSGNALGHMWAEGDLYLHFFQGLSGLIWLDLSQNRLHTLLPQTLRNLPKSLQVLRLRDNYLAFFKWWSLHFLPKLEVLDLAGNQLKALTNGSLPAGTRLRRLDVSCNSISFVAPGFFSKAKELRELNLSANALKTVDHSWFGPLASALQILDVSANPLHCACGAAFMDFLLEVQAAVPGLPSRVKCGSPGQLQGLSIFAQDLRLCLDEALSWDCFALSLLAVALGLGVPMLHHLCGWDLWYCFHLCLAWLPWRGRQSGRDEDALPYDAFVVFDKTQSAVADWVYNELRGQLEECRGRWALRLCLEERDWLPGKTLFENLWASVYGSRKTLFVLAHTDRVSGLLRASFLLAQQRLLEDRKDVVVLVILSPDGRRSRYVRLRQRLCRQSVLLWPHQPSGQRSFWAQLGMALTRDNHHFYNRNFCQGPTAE
How it was run: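 HEK-Blue cells overexpressing human TLR7, TLR8 or TLR9 carry a SEAP reporter driven by NF-κB/AP-1 sites. Compounds (0.05 nM–50 μM) were preincubated 30 min at room temperature, then cells were stimulated with gardiquimod 7.5 μM (TLR7), R848 15.9 μM (TLR8) or ODN2006 5 nM (TLR9) for 22 h at 37 °C.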

Row | SMILES | IC50 (human TLR7) [nM] | IC50 (human TLR9) [nM]
1 | COc1ccc(-c2[nH]c3ccc(C4CCN(C5CCN(CC(C)C)C5)CC4)cc3c2C)cc1OC (centres unmarked) [Example 85, 2-(3,4-dimethoxyphenyl)-5-(1-(1-isobutylpyrrolidin-3-yl)piperidin-4-yl)-3-methyl-1H-indole] | 907 | 247
2 | COc1ccc(-c2[nH]c3ccc(C4CCN(C5CCN(C)CC5)CC4)cc3c2C)cc1OC [Example 11, 2-(3,4-dimethoxyphenyl)-3-methyl-5-(1′-methyl-[1,4′-bipiperidin]-4-yl)-1H-indole] | 934 | 216
3 | COc1ccc(-c2[nH]c3ccc(C4CCN(Cc5cccc6cccnc56)CC4)cc3c2C)cc1OC [Example 36, 8-((4-(2-(3,4-dimethoxyphenyl)-3-methyl-1H-indol-5-yl)piperidin-1-yl)methyl)quinoline] | 1160 | 348
4 | COc1ccc(-c2[nH]c3ccc(C4CCN(CCNC(=O)OC(C)(C)C)CC4)cc3c2C)cc1OC [Example 99, tert-butyl (2-(4-(2-(3,4-dimethoxyphenyl)-3-methyl-1H-indol-5-yl)piperidin-1-yl)ethyl)carbamate] | 938 | 1020
5 | COc1ccc(-c2[nH]c3ccc(C4CCN(C(C)c5ccccc5)CC4)cc3c2C)cc1OC (centres unmarked) [Example 27, 2-(3,4-dimethoxyphenyl)-3-methyl-5-(1-(1-phenylethyl)piperidin-4-yl)-1H-indole] | 850 | 2800
6 | COc1ccc(-c2[nH]c3ccc(C4CCN(C5CCN(c6ccccc6)C5)CC4)cc3c2C)cc1OC (centres unmarked) [Example 8, 2-(3,4-dimethoxyphenyl)-3-methyl-5-(1-(1-phenylpyrrolidin-3-yl)piperidin-4-yl)-1H-indole] | ≥ 50000 | ≥ 50000
7 | COc1ccc(-c2[nH]c3ccc(C4CCN(Cc5cccc6ncccc56)CC4)cc3c2C)cc1OC [Example 15, 5-((4-(2-(3,4-dimethoxyphenyl)-3-methyl-1H-indol-5-yl)piperidin-1-yl)methyl)quinoline] | 8300 | 602
8 | COc1ccc(-c2[nH]c3ccc(C4CCN(C5COC5)CC4)cc3c2C)cc1OC [Example 7, 2-(3,4-dimethoxyphenyl)-3-methyl-5-(1-(oxetan-3-yl)piperidin-4-yl)-1H-indole] | 2160 | 569
9 | COc1ccc(-c2[nH]c3ccc(C4CCN(C5CCN(CCCC(=O)O)CC5)CC4)cc3c2C)cc1OC [Example 70, 4-(4-(2-(3,4-dimethoxyphenyl)-3-methyl-1H-indol-5-yl)-[1,4′-bipiperidin]-1′-yl)butanoic acid] | 3750 | 2280
10 | COc1ccc(-c2[nH]c3ccc(C4CCN(C[C@H]5CCCN5)CC4)cc3c2C)cc1OC [Example 108, (R)-2-(3,4-dimethoxyphenyl)-3-methyl-5-(1-(pyrrolidin-2-ylmethyl)piperidin-4-yl)-1H-indole] | 3540 | 861
11 | COc1ccc(-c2[nH]c3ccc(C4CCN(C[C@@H]5CCCN5)CC4)cc3c2C)cc1OC [Example 107, (S)-2-(3,4-dimethoxyphenyl)-3-methyl-5-(1-(pyrrolidin-2-ylmethyl)piperidin-4-yl)-1H-indole] | 1310 | 614
12 | COc1ccc(-c2[nH]c3ccc(C4CCN(C5CCCN(C6COC6)CC5)CC4)cc3c2C)cc1OC (centres unmarked) [Example 96, 2-(3,4-dimethoxyphenyl)-3-methyl-5-(1-(1-(oxetan-3-yl)azepan-4-yl)piperidin-4-yl)-1H-indole] | 2530 | 186
13 | COc1ccc(-c2[nH]c3ccc(C4CCN(C5CCCNC5)CC4)cc3c2C)cc1OC (centres unmarked) [Example 106, 5-([1,3′-bipiperidin]-4-yl)-2-(3,4-dimethoxyphenyl)-3-methyl-1H-indole] | 905 | 307

Molecules with a lower IC50 (human TLR7), results first:

Row | IC50 (human TLR7) [nM] | IC50 (human TLR9) [nM] | SMILES
14 | 144 | 385 | COc1ccc(-c2[nH]c3ccc(C4CCN(C5CCCC(N)C5)CC4)cc3c2C)cc1OC (centres unmarked) [Example 105, 3-(4-(2-(3,4-dimethoxyphenyl)-3-methyl-1H-indol-5-yl)piperidin-1-yl)cyclohexan-1-amine]
15 | 64 | 2700 | COc1ccc(-c2[nH]c3ccc(C4CCN(Cc5cccc(NS(C)(=O)=O)c5)CC4)cc3c2C(C)C)cc1OC [Example 260, N-(3-((4-(2-(3,4-dimethoxyphenyl)-3-isopropyl-1H-indol-5-yl)piperidin-1-yl)methyl)phenyl)methanesulfonamide]
16 | 638 | 1010 | COc1ccc(-c2[nH]c3ccc(C4CCN(Cc5ccccn5)CC4)cc3c2C)cc1OC [Example 28, 2-(3,4-dimethoxyphenyl)-3-methyl-5-(1-(pyridin-2-ylmethyl)piperidin-4-yl)-1H-indole]
17 | 368 | 729 | COc1ccc(-c2[nH]c3ccc(C4CCN(CC5CCOCC5)CC4)cc3c2C)cc1OC [Example 17, 2-(3,4-dimethoxyphenyl)-3-methyl-5-(1-((tetrahydro-2H-pyran-4-yl)methyl)piperidin-4-yl)-1H-indole]
18 | 179 | 33200 | CCc1c(-c2ccc(OC)c(OC)c2)[nH]c2ccc(C3CCN(C(=O)CN4CCOCC4)CC3)cc12 [Example 167, 1-(4-(2-(3,4-dimethoxyphenyl)-3-ethyl-1H-indol-5-yl)piperidin-1-yl)-2-morpholinoethan-1-one]
19 | 257 | 1670 | CCc1c(-c2ccc(OC)c(OC)c2)[nH]c2ccc(C3CCN(C(=O)CN(C)C(C)C)CC3)cc12 [Example 170, 1-(4-(2-(3,4-dimethoxyphenyl)-3-ethyl-1H-indol-5-yl)piperidin-1-yl)-2-(isopropyl(methyl)amino) ethan-1-one]
20 | 666 | 860 | COc1ccc(-c2[nH]c3ccc(C4CCN(C(C)CN(C)C)CC4)cc3c2C)cc1OC (centres unmarked) [Example 30, 2-(4-(2-(3,4-dimethoxyphenyl)-3-methyl-1H-indol-5-yl)piperidin-1-yl)-N,N-dimethylpropan-1-amine]
21 | 348 | 318 | COc1ccc(-c2[nH]c3ccc(C4CCN(C5CCN(C6CCOCC6)CC5)CC4)cc3c2C)cc1OC [Example 26, 2-(3,4-dimethoxyphenyl)-3-methyl-5-(1′-(tetrahydro-2H-pyran-4-yl)-[1,4′-bipiperidin]-4-yl)-1H-indole]
22 | 180 | ≥ 50000 | CCC(CC)CN1CCC(c2ccc3[nH]c(-c4ccc(OC)c(OC)c4)c(C(C)C)c3c2)CC1 [Example 265, 2-(3,4-dimethoxyphenyl)-5-(1-(2-ethylbutyl)piperidin-4-yl)-3-isopropyl-1H-indole]
